In patent US12077503B2, “Substituted cyclic amides and their use as herbicides” (FMC CORPORATION, priority 2015, dated 2024):

What was measured:
Assay type in all cases: in vivo
[1] = tested on: ryegrass, Italian (Italian ryegrass, Lolium multiflorum); experiment: Test A postemergence; details: Lolium multiflorum, post-emergence, 240 h, Postemergence, read-out: Plant response rating, Ryegrass, Italian; for pest or weed control at 125 g/ha: 125 g ai/ha, visual injury after approx. 10 d, 0 to 100 scale, 0 no effect, 100 complete control; for pest or weed control at 500 g/ha: 500 g ai/ha, visual injury, 0 to 100 scale (0 no effect, 100 complete control), approx. 10 d
Summary of the method: (§1)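 Visual injury, scored on a 0–100 scale relative to untreated controls, was recorded about 10 d after application. Treatments were a preemergence soil spray over planted seeds or a postemergence spray on plants at the one- to two-leaf stage, 2 to 10 cm tall, all in loam soil–sand blend in the greenhouse.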

Kochia (Kochia scoparia) [2] = experiment: Test A postemergence; details: Bassia scoparia, post-emergence, 240 h, Postemergence, read-out: Plant response rating, Kochia; for pest or weed control at 125 g/ha: 125 g ai/ha, visual injury after approx. 10 d, 0 to 100 scale, 0 no effect, 100 complete control; for pest or weed control at 500 g/ha: 500 g ai/ha, visual injury, 0 to 100 scale (0 no effect, 100 complete control), approx. 10 d
Summary of the method: as §1

[3] = tested on: wheat (Triticum aestivum); experiment: Test A postemergence; details: Triticum aestivum, post-emergence, 240 h, Postemergence, read-out: Plant response rating, Wheat; for plant injury at 125 g/ha: 125 g ai/ha, visual injury after approx. 10 d, 0 to 100 scale, 0 no effect, 100 complete control; for plant injury at 500 g/ha: 500 g ai/ha, visual injury, 0 to 100 scale (0 no effect, 100 complete control), approx. 10 d
Summary of the method: as §1

[4] = tested on: Galium (catchweed bedstraw, Galium aparine); experiment: Test A postemergence; details: Galium, post-emergence, 240 h, Postemergence, read-out: Plant response rating, Galium; for pest or weed control at 125 g/ha: 125 g ai/ha, visual injury after approx. 10 d, 0 to 100 scale, 0 no effect, 100 complete control; for pest or weed control at 500 g/ha: 500 g ai/ha, visual injury, 0 to 100 scale (0 no effect, 100 complete control), approx. 10 d
Summary of the method: as §1

corn (Zea mays) = experiment: Test A postemergence; details: Zea mays, post-emergence, 240 h, Postemergence; for Corn plant response rating (crop injury, 0 = no effect, 100 = complete kill) at 125 g/ha: 125 g ai/ha, visual injury after approx. 10 d, 0 to 100 scale, 100 complete control; for Corn plant response rating (crop injury, 0 = no effect, 100 = complete kill) at 500 g/ha: 500 g ai/ha, visual injury, 0 to 100 scale (0 no effect, 100 complete control), approx. 10 d
Summary of the method: as §1

[5] = tested on: barnyardgrass (Echinochloa crus-galli); experiment: Test A postemergence; details: Echinochloa crus-galli, post-emergence, 240 h, Postemergence, read-out: Plant response rating, Barnyardgrass; for pest or weed control at 125 g/ha: 125 g ai/ha, visual injury after approx. 10 d, 0 to 100 scale, 0 no effect, 100 complete control; for pest or weed control at 500 g/ha: 500 g ai/ha, visual injury, 0 to 100 scale (0 no effect, 100 complete control), approx. 10 d
Summary of the method: as §1

[6] = tested on: giant foxtail (Setaria faberii); experiment: Test A postemergence; details: Setaria faberi, post-emergence, 240 h, Postemergence, read-out: Plant response rating, Foxtail, Giant; for pest or weed control at 125 g/ha: 125 g ai/ha, visual injury after approx. 10 d, 0 to 100 scale, 0 no effect, 100 complete control; for pest or weed control at 500 g/ha: 500 g ai/ha, visual injury, 0 to 100 scale (0 no effect, 100 complete control), approx. 10 d
Summary of the method: as §1

[7] = tested on: pigweed (Amaranthus retroflexus); experiment: Test A postemergence; details: Amaranthus retroflexus, post-emergence, 240 h, Postemergence, read-out: Plant response rating, Pigweed; for pest or weed control at 125 g/ha: 125 g ai/ha, visual injury after approx. 10 d, 0 to 100 scale, 0 no effect, 100 complete control; for pest or weed control at 500 g/ha: 500 g ai/ha, visual injury, 0 to 100 scale (0 no effect, 100 complete control), approx. 10 d
Summary of the method: as §1

[8] = tested on: ragweed (common ragweed, Ambrosia elatior); experiment: Test A postemergence; details: Ambrosia artemisiifolia, post-emergence, 240 h, Postemergence, read-out: Plant response rating, Ragweed; for pest or weed control at 125 g/ha: 125 g ai/ha, visual injury after approx. 10 d, 0 to 100 scale, 0 no effect, 100 complete control; for pest or weed control at 500 g/ha: 500 g ai/ha, visual injury, 0 to 100 scale (0 no effect, 100 complete control), approx. 10 d
Summary of the method: as §1

[9] = tested on: ryegrass, Italian (Italian ryegrass, Lolium multiflorum); experiment: Test A preemergence; details: Lolium multiflorum, pre-emergence, 240 h, 0 to 100 scale (0 no effect, 100 complete control), read-out: Plant response rating, Ryegrass, Italian; for pest or weed control at 500 g/ha: 500 g ai/ha, preemergence; for pest or weed control at 125 g/ha: Preemergence, 125 g ai/ha
Summary of the method: as §1

Kochia (Kochia scoparia) [10] = experiment: Test A preemergence; details: Bassia scoparia, pre-emergence, 240 h, 0 to 100 scale (0 no effect, 100 complete control), read-out: Plant response rating, Kochia; for pest or weed control at 500 g/ha: 500 g ai/ha, preemergence; for pest or weed control at 125 g/ha: Preemergence, 125 g ai/ha
Summary of the method: as §1

[11] = tested on: barnyardgrass (Echinochloa crus-galli); experiment: Test A preemergence; details: Echinochloa crus-galli, pre-emergence, 240 h, 0 to 100 scale (0 no effect, 100 complete control), read-out: Plant response rating, Barnyardgrass; for pest or weed control at 500 g/ha: 500 g ai/ha, preemergence; for pest or weed control at 125 g/ha: Preemergence, 125 g ai/ha
Summary of the method: as §1

[12] = tested on: giant foxtail (Setaria faberii); experiment: Test A preemergence; details: Setaria faberi, pre-emergence, 240 h, 0 to 100 scale (0 no effect, 100 complete control), read-out: Plant response rating, Foxtail, Giant; for pest or weed control at 500 g/ha: 500 g ai/ha, preemergence; for pest or weed control at 125 g/ha: Preemergence, 125 g ai/ha
Summary of the method: as §1

[13] = tested on: pigweed (Amaranthus retroflexus); experiment: Test A preemergence; details: Amaranthus retroflexus, pre-emergence, 240 h, 0 to 100 scale (0 no effect, 100 complete control), read-out: Plant response rating, Pigweed; for pest or weed control at 500 g/ha: 500 g ai/ha, preemergence; for pest or weed control at 125 g/ha: Preemergence, 125 g ai/ha
[14] = tested on: ragweed (common ragweed, Ambrosia elatior); experiment: Test A preemergence; details: Ambrosia artemisiifolia, pre-emergence, 240 h, 0 to 100 scale (0 no effect, 100 complete control), read-out: Plant response rating, Ragweed; for pest or weed control at 500 g/ha: 500 g ai/ha, preemergence; for pest or weed control at 125 g/ha: Preemergence, 125 g ai/ha
Summary of the method: as §1

| SMILES | pest or weed control at 125 g/ha [1] [%] | pest or weed control at 500 g/ha [1] [%] | pest or weed control at 125 g/ha (Kochia (Kochia scoparia) [2]) [%] | pest or weed control at 500 g/ha (Kochia (Kochia scoparia) [2]) [%] | plant injury at 125 g/ha [3] [%] | plant injury at 500 g/ha [3] [%] | pest or weed control at 125 g/ha [4] [%] | pest or weed control at 500 g/ha [4] [%] | Corn plant response rating (crop injury, 0 = no effect, 100 = complete kill) at 125 g/ha (corn (Zea mays)) [%] | Corn plant response rating (crop injury, 0 = no effect, 100 = complete kill) at 500 g/ha (corn (Zea mays)) [%] | pest or weed control at 125 g/ha [5] [%] | pest or weed control at 500 g/ha [5] [%] | pest or weed control at 125 g/ha [6] [%] | pest or weed control at 500 g/ha [6] [%] | pest or weed control at 125 g/ha [7] [%] | pest or weed control at 500 g/ha [7] [%] | pest or weed control at 125 g/ha [8] [%] | pest or weed control at 500 g/ha [8] [%] | pest or weed control at 500 g/ha [9] [%] | pest or weed control at 125 g/ha [9] [%] | other results |
| --- | --- | --- | --- | --- | --- | --- | --- | --- | --- | --- | --- | --- | --- | --- | --- | --- | --- | --- | --- | --- | --- |
| CC(C)c1cccc([C@H]2CN(C)C(=O)[C@@H]2C(=O)Nc2cccc(F)c2F)c1 [Compound 1388] | 60 | 90 | 30 | 50 | 50 | 60 | 50 | 50 | 60 | 80 | 100 | 100 | 90 | 90 | 40 | 50 | 0 | 50 | 100 | 90 | pest or weed control at 500 g/ha (Kochia (Kochia scoparia) [10]): 90%; pest or weed control at 125 g/ha (Kochia (Kochia scoparia) [10]): 80%; pest or weed control at 500 g/ha [11]: 100%; pest or weed control at 125 g/ha [11]: 100%; pest or weed control at 500 g/ha [12]: 100%; pest or weed control at 125 g/ha [12]: 100%; pest or weed control at 500 g/ha [13]: 70%; pest or weed control at 125 g/ha [13]: 30%; pest or weed control at 500 g/ha [14]: 70%; pest or weed control at 125 g/ha [14]: 0% |
| CN1C[C@H](c2cccc(C(F)(F)F)c2)[C@@H](C(=O)Nc2ccc(F)c(F)c2F)C1=O [Compound 1389] | 70 | 80 | 60 | 80 | 60 | 70 | 60 | 70 | 90 | 90 | 90 | 100 | 80 | 80 | 30 | 70 | 0 | 20 | 90 | 80 | pest or weed control at 500 g/ha (Kochia (Kochia scoparia) [10]): 90%; pest or weed control at 125 g/ha (Kochia (Kochia scoparia) [10]): 70%; pest or weed control at 500 g/ha [11]: 100%; pest or weed control at 125 g/ha [11]: 100%; pest or weed control at 500 g/ha [12]: 100%; pest or weed control at 125 g/ha [12]: 100%; pest or weed control at 500 g/ha [13]: 80%; pest or weed control at 125 g/ha [13]: 70%; pest or weed control at 500 g/ha [14]: 30%; pest or weed control at 125 g/ha [14]: 0% |
